According to US20260226011A1, “COMPOSITIONS AND METHODS FOR TREATING OCULAR DISEASES OR DISORDERS” (Translatum Medicus Inc., priority 2023, published 2026):

Experiments:
[1] = test system: monocyte chemoattractant protein-1 (MCP-1); experiment: MCP-1 (ccl2) mRNA expression (qPCR) after LPS stimulation of PMA-differentiated THP-1 macrophages; assay type: cell-based, Human; settings: 150 μM compound, LPS 100 ng/ml for 1 hour, qPCR delta delta Ct (FIG. 1)
Method: Human THP-1 monocytes were seeded at 5×10^5-9×10^5 in a 6-well plate. Phorbol myristate acetate (5 ng/ml, PMA) was added for 48-72 hours, to induce differentiation from monocytes to macrophages. Cells were then starved for 3 hours.
Cells were harvested in RNALater (Qiagen), and prepared for quantitative polymerase chain reaction (qPCR). Total RNA was isolated using Trizol Reagent (Life Technologies) based on the manufacturer's protocol and its quantity and quality checked with a Nanodrop 2000 spectrophotometer (Thermo Scientific, USA). QuantiTect Reverse Transcription Kit with separate genomic DNA removal step (Qiagen) was used based on the manufacturer's protocol. Briefly, 0.5 μg total RNA was used for each sample during reverse transcription and the resulting cDNA solution was further diluted to 10 ng/ul with nuclease free water and stored at-20 C.
PowerUp SYBR Green Master Mix (ThermoFisher Scientific) was used for quantitative PCR based on manufacturer's protocol. […]
Relative quantification method based on delta delta Ct was used for comparison of gene expression levels in various arms. Briefly, relative quantification and statistical analysis were performed using Relative Expression Software Tool-Multiple Condition Solver (REST-MCS, V2) based on the protocol by M. W. Pfaffl & G. W. Horgan (2006), which is incorporated by reference herein in its entirety.

[2] = Acid hydrolysis of bindarit conjugates in 12M HCl, read by NMR; assay type: physicochemical; settings: for hydrolysis in 12M HCl: 12M HCl at 40° C., overnight; for conjugate hydrolized (acid hydrolysis): 12M HCl, 40° C., stirred 16 hours, NMR in D2O
Method: Acid hydrolysis: 4 mg bindarit-taurine conjugate was added to 4 mL 12M HCl. The reaction mixture was heated to 40° C. and stirred for 16 hours, followed by concentration of the reaction mixture. About 70% (mol %) of the bindarit-taurine conjugate was hydrolized as identified by NMR in D2O (FIG. 10).
3 mg bindarit-carnosine conjugate was added to 3 mL 12M HCl. The reaction mixture was heated to 40° C. and stirred for 16 hours, followed by concentration of the reaction mixture. About 50% (mol %) of the bindarit-carnosine conjugate was hydrolized as identified by NMR in D2O (FIG. 12).

Row | Structure (SMILES) | ability to reduce MCP-1 mRNA [1] | hydrolysis in 12M HCl [2] [%] | conjugate hydrolized (acid hydrolysis) [2]
1 | CCOC(=O)C(C)(C)OCc1nn(Cc2ccccc2)c2ccccc12 [bindarit ethyl ester, ethyl 2-((1-benzl-1H-indazol-3-yl)methoxy)-2-methylpropanoate] | equally as efficacious as bindarit |  | 
2 | CC(C)(OCc1nn(Cc2ccccc2)c2ccccc12)C(=O)NCCS(=O)(=O)O [bindarit-taurine conjugate] |  | 70 | About 70 % (mol %)
3 | CC(C)(OCc1nn(Cc2ccccc2)c2ccccc12)C(=O)NCCC(=O)N[C@@H](Cc1cnc[nH]1)C(=O)O [bindarit-carnosine conjugate] |  | 50 | About 50 % (mol %)
